In experiment [1] the target is Protein kinase C alpha type (Homo sapiens, UniProt P17252). The experiment can be described thus: Inhibition of [20-3H]phorbol 12,13-dibutyrate binding to human PKCalpha by scintillation counting based poly(ethylene) glycol precipitation assay.
In experiment [2] the test system is Toledo. The experiment is described as follows: Potency index, ratio of IC50 for neristatin-1 to IC50 for test compound against human Toledo cells after 72 hrs by particle counter based cell counting assay. The class given is functional.
Experiment [3] concerns U-937. The experiment is described as follows: Growth inhibition of human U937 cells at 0.1 nM to 1000 nM after 72 hrs by particle counter based cell counting assay. In kind it is functional.
The test system of experiment [4] is U-937. The experiment is described as follows: Suppression of PMA-induced growth inhibition of human U937 cells at 1000 nM after 72 hrs by particle counter based cell counting assay. In kind it is functional.
For experiment [5], the system named is U-937. The experiment is described as follows: Induction of cell attachment of human U937 cells at 0.1 nM to 1000 nM after 60 hrs by particle counter based cell counting assay. The class given is functional.
Experiment [6] concerns U-937. The experiment can be described thus: Inhibition of PMA-induced cell attachment of human U937 cells at 1000 nM after 60 hrs by particle counter based cell counting assay. The class given is functional.
The subject of experiment [7] is U-937. The experiment is described as follows: Induction of TNFalpha secretion in human U937 cells at 0.01 nM to 10000 nM by real time qPCR method. In kind it is functional, cell-based. In general terms: Real-time PCR tracks product formation cycle by cycle.
The test system of experiment [8] is U-937. The experiment is described as follows: Inhibition of PMA-induced TNFalpha secretion in human U937 cells at 0.01 nM to 10000 nM by real time qPCR method. The class given is functional, cell-based.
For experiment [9], the system named is U-937. The experiment can be described thus: Growth inhibition of human U937 cells at 0.1 nM to 3000 nM after 72 hrs by particle counter based cell counting assay. In kind it is functional.
Experiment [10] relates to U-937. The experiment is described as follows: Growth inhibition of human U937 cells at 1000 nM in presence of 10 nM PMA after 72 hrs by particle counter based cell counting assay. The class given is functional.
Experiment [11] relates to U-937. The experiment can be described thus: Induction of cell attachment of human U937 cells at 0.1 nM to 3000 nM after 60 hrs by particle counter based cell counting assay. In kind it is functional.
The test system of experiment [12] is U-937. The experiment can be described thus: Induction of TNFalpha secretion in human U937 cells at 0.01 nM to 10000 nM by real time qPCR method relative to PMA. The class given is functional.
Experiment [13] in a line: Growth inhibition of human Toledo cells after 72 hrs by particle counter based cell counting assay. The class given is functional.
Experiment [14] has as its system Toledo. The experiment can be described thus: Potency index, ratio of IC50 for Merle-43 to IC50 for test compound against human Toledo cells after 72 hrs by particle counter based cell counting assay. In kind it is functional.

Molecules are shown by their SMILES. Active and inactive are the calls of the source. No cut-off for these calls is given here.

On to `CCC/C=C/C=C/C(=O)O[C@H]1/C(=C/C(=O)OC)C[C@H]2C[C@H]([C@@H](C)O)OC(=O)C[C@H](O)C[C@@H]3C[C@H](OC(C)=O)C(C)(C)[C@](O)(C[C@@H]4C/C(=C/C(=O)OC)C[C@H](/C=C/C(C)(C)[C@]1(O)O2)O4)O3` [BRYOSTATIN 1], for which affinity in experiment [1] was put at a Ki of 0.48 nM. For the same compound, the “Ratio IC50” value in the experiment on Toledo [2] came out at 17. Moreover, the “growth inhibition (GI)” value in the experiment with U-937 [3] is “inactive”. Also, the inhibition entry in the experiment on U-937 [4], in the experiment on U-937 [6] and in the experiment with U-937 [8] was “Active” throughout. In addition, the outcome with U-937 [5] and in the experiment on U-937 [7] was inactive.
On to `CCCCCCCC(=O)O[C@H]1/C(=C/C(=O)OC)C[C@H]2C[C@@H](O)[C@@H](C)OC(=O)C[C@H](O)C[C@@H]3C[C@H](OC(C)=O)C(C)(C)[C@](O)(CCOC(=O)/C=C/C(C)(C)[C@]1(O)O2)O3`, for which the “growth inhibition (GI)” value in the experiment with U-937 [9] and with U-937 [10] was “Active” each time. Besides, the result in the experiment with U-937 [11] was Active. This compound yielded an Activity with U-937 [12] of 60%.
As to `CCCCCCCCCCCCCC(=O)O[C@@H]1[C@@H](C)[C@@]2(O)[C@@H](C=C(CO)C[C@]3(O)C(=O)C(C)=C[C@@H]23)[C@@H]2C(C)(C)[C@]12OC(C)=O` [PHORBOL MYRISTATE ACETATE], the “growth inhibition (GI)” value with U-937 [3] is recorded as 50%. For the same compound, the outcome with U-937 [5] and in the experiment with U-937 [7] was Active.
Turning to `COC(=O)/C=C1/C[C@H]2C[C@]3(O)O[C@H](C[C@@H](O)CC(=O)O[C@H](C)[C@H](O)C[C@@H]4C[C@@H]5CC(=O)O[C@@]5(O4)C(=O)C(C)(C)/C=C/[C@@H](C1)O2)C[C@H](OC(=O)C(C)(C)C)C3(C)C`, affinity in [1] was put at a Ki of 21.2 nM. In experiment [13], this compound had an IC50 of 1.58 nM. In addition, the “Ratio IC50” value in the experiment with Toledo [14] was 2.5. For the same compound, in the experiment with U-937 [3], the “growth inhibition (GI)” value is “inactive”. Also, the inhibition entry in the experiment on U-937 [4], in the experiment with U-937 [6] and with U-937 [8] was “Active” in each case. The outcome in the experiment on U-937 [5] and in the experiment on U-937 [7] was inactive.

What is called Ki is a dissociation constant, usually derived from enzyme kinetics or from competition with a known ligand. High values mean a looser hold on the target, low ones a stronger hold on the target. What is called IC50 is the concentration that inhibits the measured activity by half.

Source of the values: ChEMBL document CHEMBL3580537, “Neristatin 1 provides critical insight into bryostatin 1 structure-function relationships” (J Nat Prod, 2015).
